{"source": "patent US6297267A", "about": "“4,5-diaryloxazole compounds” (Fujisawa Pharmaceutical Co., Ltd., priority 1997, dated 2001)"}
{"system": "Human Platelet", "assay": "Inhibition of Human Platelet Aggregation Induced by ADP", "assay_type": "cell-based", "conditions": "2 min; Test Compound 1.0 × 10^-7 M; human platelet rich plasma; ADP 2.5 μM; 2 minutes at 37° C", "procedure": "Inhibition of Human Platelet Aggregation Induced by ADP\nHuman blood was collected from healthy volunteers and mixed with 1/10 volume of 3.8% sodium citrate solution, pH 7.4. The citrate blood was centrifuged at 150×g for 10 minutes and the platelet rich plasma (PRP) was removed. The remaining blood was centrifuged for a further 10 minutes at 1500×g to prepare the platelet poor plasma (PPP), which was used as a reference for platelet aggregation. Aggregation studies were carried out using HEMATRACER 801 (NBS, Japan), a 8 channel aggregometer. 25 μl of a solution of Test compound in Tris-acetate buffer pH 7.4 and 225 μl of PRP were mixed and stirred at 1000 rpm for 2 minutes at 37° C. Aggregation was induced by ADP (adenosin 5'-diphosphate) solution at the final concentration of 2.5 μM.", "units": {"inhibition at 0.1 µM": "%"}}
{"smiles": "O=C(O)COc1cccc(CC2(O)CCCC=C2c2nc(-c3ccccc3)c(-c3ccccc3)o2)c1", "note": "(stereo not drawn) [(1)]", "inhibition at 0.1 µM": "> 90"}
{"smiles": "O=C(O)COc1cccc(C[C@@H]2CCC(O)C=C2c2nc(-c3ccccc3)c(-c3ccccc3)o2)c1", "note": "(stereo partly drawn) [(2)]", "inhibition at 0.1 µM": "> 90"}
{"smiles": "O=C(O)COc1cccc(C[C@@H]2CCCC3OC32c2nc(-c3ccccc3)c(-c3ccccc3)o2)c1", "note": "(stereo partly drawn) [(3)]", "inhibition at 0.1 µM": "> 90"}
